This is an account of results in PubChem BioAssay AID540349 (The Scripps Research Institute Molecular Screening Center, 2011).

As a reminder, the EC50 is the concentration giving half of the maximal effect.

The target of the assay is Sphingosine 1-phosphate receptor 3 (Homo sapiens) (UniProt Q99500). Briefly: activation of S1P3 receptor – cell-based, fluorescence, synthesized compounds, SAR follow-up (AID 540349). The note with it: S1P3-expressing cells, agonist fluorescence read-out.

The source made the active and inactive calls. No rule for the calls is given here.

Sequence of Sphingosine 1-phosphate receptor 3 (Homo sapiens) (Q99500 whole entry, looked up): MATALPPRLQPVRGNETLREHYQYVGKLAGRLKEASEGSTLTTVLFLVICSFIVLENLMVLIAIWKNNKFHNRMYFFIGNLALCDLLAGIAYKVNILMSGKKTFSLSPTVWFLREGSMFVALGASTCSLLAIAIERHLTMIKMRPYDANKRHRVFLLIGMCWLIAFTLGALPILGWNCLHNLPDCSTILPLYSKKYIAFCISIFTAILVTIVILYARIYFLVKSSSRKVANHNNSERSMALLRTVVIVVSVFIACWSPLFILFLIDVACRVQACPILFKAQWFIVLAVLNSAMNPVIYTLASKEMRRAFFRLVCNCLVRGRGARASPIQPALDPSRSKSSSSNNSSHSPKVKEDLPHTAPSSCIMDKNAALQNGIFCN

On to `CCCc1cc(C(=O)N(C2CCCCC2)C2CCCC2)no1`, for which the EC50 was > 10000 nM (inactive) (run 1) and 5670 nM (run 3). Further, the EC50 entry (run 2) was “inactive”.

`O=C(c1cc(C2CC2)on1)N(Cc1ccccc1)c1ccccn1`: the half-maximal effective concentration (EC50) was 6890 nM (run 1), 7540 nM (run 2) and 5230 nM (run 3).

Take `CCOc1ccc(-c2nc(C(=O)N(C3CCCCC3)C3CCCCC3)co2)cc1OCC`: the EC50 was > 10000 nM (inactive) (run 1), 8010 nM (run 2) and 8130 nM (run 3).

As to `O=C(c1cc(C2CC2)on1)N(C1CCCCC1)C1CCOCC1`, the half-maximal effective concentration (EC50) was 3830 nM (run 1), 3730 nM (run 2) and 3050 nM (run 3).

Turning to `CC(C)Cc1cc(C(=O)N(C2CCCCC2)C2CCCCC2)no1`, the EC50 by setting is: (run 1) 2080 nM; (run 2) 785 nM; (run 3) 1260 nM.

Regarding `O=C(c1cc(C2CC2)on1)N(CC1CCCCC1)C1CCCCC1`, the EC50 (run 1) is 6400 nM, the EC50 (run 2) is 2160 nM and the 50% effective concentration (EC50) (run 3) is 1730 nM.

Regarding `O=C(c1cc(C2CC2)on1)N(C1CCCCC1)C1CCCCC1`, the concentration for a half-maximal effect (EC50) (run 1) was 72.3 nM, the 50% effective concentration (EC50) (run 2) was 132 nM and the half-maximal effective concentration (EC50) (run 3) was 112 nM.

As for `COc1ccc(-c2cc(C(=O)N(C3CCCCC3)C3CCCCC3)no2)cc1OC`, the EC50 (run 1) was > 10000 nM (inactive), the EC50 (run 2) is > 50000 nM (inactive) and the EC50 (run 3) is > 50000 nM (inactive).

`COc1ccc(-c2cc(C(=O)N(C3CCCCC3)C3CCCCC3)no2)cc1`: the EC50 is, setting by setting: (run 1) 583 nM; (run 2) 173 nM; (run 3) 212 nM.

On to `O=C(c1cc(C2CC2)on1)N(C1CCCCCC1)C1CCCC1`, for which the EC50 reads like this: (run 1) 3910 nM; (run 2) 2390 nM; (run 3) 1960 nM.

On to `O=C(c1cc(C2CC2)on1)N(Cc1ccccc1)c1ccccc1`, for which the EC50 (run 1) is 7620 nM, the EC50 (run 2) was 8130 nM and the half-maximal effective concentration (EC50) (run 3) was 5250 nM.

Take `CCN(CC)C(=O)c1cc(C2CC2)on1`: the EC50 reads like this: (run 1) > 10000 nM (inactive); (run 2) > 50000 nM (inactive); (run 3) > 50000 nM (inactive).

Turning to `CCCc1cc(C(=O)N(C2CCCCC2)C2CCCCC2)no1`, the concentration giving a half-maximal response (EC50) is 495 nM (run 1), 335 nM (run 2) and 471 nM (run 3).

As to `CC1CCCCC1N(C(=O)c1cc(C2CC2)on1)C1CCCCCC1` (configuration not stated), the EC50 reads like this: (run 1) 842 nM; (run 2) 285 nM; (run 3) 478 nM.

`CC1CCCCC1N(C(=O)c1cc(C2CC2)on1)C1CCOCC1` (configuration not stated): the EC50 reads like this: (run 1) > 10000 nM (inactive); (run 2) 2230 nM; (run 3) 3410 nM.

Turning to `O=C(c1noc2ccccc12)N(C1CCCCC1)C1CCCCC1`, the EC50 (run 1) is > 10000 nM (inactive), the EC50 (run 2) was > 50000 nM (inactive) and the EC50 (run 3) was > 50000 nM (inactive).

For `O=C(c1coc(C2CC2)n1)N(C1CCCCC1)C1CCCCC1`, the EC50 is > 10000 nM (inactive) (run 1), > 50000 nM (inactive) (run 2) and > 50000 nM (inactive) (run 3).

Turning to `CC1CCCCC1N(C(=O)c1cc(C2CC2)on1)C1CCCCC1` (configuration not stated), the EC50 reads like this: (run 1) 349 nM; (run 2) 326 nM; (run 3) 337 nM.

Take `O=C(c1cc(C2CC2)on1)N(Cc1ccccc1)Cc1ccccc1`: the EC50 by setting is: (run 1) > 10000 nM (inactive); (run 2) > 50000 nM (inactive); (run 3) > 50000 nM (inactive).

Regarding `O=C(NC1CCCCC1)c1cc(C2CC2)on1`, the EC50 reads like this: (run 1) > 10000 nM (inactive); (run 2) > 50000 nM (inactive); (run 3) > 50000 nM (inactive).

With `CC1CCCCC1N(C(=O)c1cc(C2CC2)on1)C1CCCC1` (configuration not stated), the EC50 is 2610 nM (run 1), 1080 nM (run 2) and 1530 nM (run 3).

For `COc1ccc(N(Cc2ccccc2)C(=O)c2cc(C3CC3)on2)cc1`, the EC50 (run 1) is > 10000 nM (inactive). Moreover, the EC50 entry runs as follows: (run 2) “inactive”; (run 3) “inactive”.

As to `CCCc1cc(C(=O)NC2CCCCC2)no1`, the EC50 by setting is: (run 1) > 10000 nM (inactive); (run 2) > 50000 nM (inactive); (run 3) > 50000 nM (inactive).

`O=C(c1cc(C2CC2)on1)N(C1CCCCC1)C1CCCC1`: the concentration giving a half-maximal response (EC50) runs as follows: (run 1) 2770 nM; (run 2) 1220 nM; (run 3) 1060 nM.

Take `O=C(c1cc(-c2ccccc2)on1)N(C1CCCCC1)C1CCCCC1`: the EC50 reads like this: (run 1) 216 nM; (run 2) 35.2 nM; (run 3) 58.9 nM.

As to `CC1CCCCC1N(C(=O)c1cc(C2CC2)on1)C1CCCCC1C` (configuration not stated), the EC50 reads like this: (run 1) 280 nM; (run 2) 126 nM; (run 3) 200 nM.

For the compound `O=C(c1cc(-c2ccccc2)on1)N(C1CCCCC1)C1CCCC1`, the EC50 runs as follows: (run 1) 1550 nM; (run 2) 519 nM; (run 3) 472 nM.

Take `CC(C)c1cc(C(=O)N(C2CCCCC2)C2CCCCC2)no1`: the EC50 (run 1) is 1410 nM, the EC50 (run 2) was 799 nM and the EC50 (run 3) is 668 nM.

For `O=C(c1ccc(C2CC2)o1)N(C1CCCCC1)C1CCCCC1`, the EC50 was > 10000 nM (inactive) (run 1), > 50000 nM (inactive) (run 2) and > 50000 nM (inactive) (run 3).
